Measurements from patent publication US20030176366A1, “Topical application of ascorbic acid compounds for augmenting the synthesis of epidermal ceramides” (SOCIETE L'OREAL S.A., priority 2000, published 2003).

Experiments:
[1] = test system: reconstructed epidermes; assay: Lipid profile of treated reconstructed epidermes (densitometric analysis); type: cell-based; conditions: applied for 6 days at 1.10×10^−4 M; relative to the control and relative to ascorbic acid; not quantified
Experimental: The test described in Example 1 was repeated using various ascorbic acid derivatives, applied for 6 days at 1.10×10^-4 M on reconstructed […] subjected to 7 days of culture. The quantity of epidermal ceramides produced was, however, not quantified. Instead, a densitometric analysis was carried out using a CAMAG TLC® model Scanner 3 densitometric reader. The lipid profile of the treated […] determined, in which: The lipid content was determined of the sample of reconstructed epidermis either untreated (control), or treated with ascorbic acid (vitamin C) or with one of the ascorbic acid derivatives A to G indicated above.

[2] = test system: skin equivalent marketed by EPISKIN; assay: Effect on the synthesis of epidermal lipids in EPISKIN skin equivalent (HPTLC, densitometry); type: cell-based; conditions: for percentage increase in Ceramides 4-7 relative to the untreated control / percentage increase in cer. 6-7 relative to the untreated control: treated for five days
Experimental: Ascorbyl glucoside and ascorbic acid itself were tested on a skin equivalent marketed by EPISKIN (Lyon, France), after culturing the latter for 7 days. The culture and assay media were those contained in the kit marketed by the supplier. Each compound was tested at 5 μg/ml and 0.05 μg/ml (as vitamin C equivalent) in the culture medium. The reconstructed epidermes were treated for five days, the culture medium being replaced every 48 hours. The control consisted of an identical epidermis equivalent which was subjected to topical application of culture medium without the compound to be tested.
At the end of the incubation period, the epidermis equivalent was detached from its collagenic support. The preparation of the lipids of the epidermis equivalent and their analysis by HPTLC or high-performance thin-layer chromatography were carried out according to the technique and with the buffers described by M. Ponec (1991, Adv. Lipid Res., 24:83-117). At the end of the migration, densitometric analysis was carried out using a CAMAG TLC model Scanner 3 densitometric reader.
The results obtained are reported in the Table below as a percentage increase in ceramides 4, 5, 6 and 7 relative to the untreated control.

[3] = 0.05 μg/ml as vitamin C equiv. in culture medium
[4] = 5 μg/ml as vitamin C equiv. in culture medium

O=C(/C=C/c1ccccc1)OC1=C(O)[C@@H]([C@@H](O)CO)OC1=O [Compound B, ascorbyl 2-cinnamate]
polar ceramide content of reconstructed epidermes / effect on epidermal lipogenesis [1]: significantly increases the polar ceramide content

CC1(C)OCC(C2OC(=O)C(OC(=O)c3ccccc3)=C2O)O1 (stereo not shown) [Compound G, (5,6-isopropylidene)ascorbyl 2-benzoate]
polar ceramide content of reconstructed epidermes / effect on epidermal lipogenesis [1]: significantly increases the polar ceramide content

CCCCCCCCCCCCCCCC(=O)OC1=C(O)C(C2COC(C)(C)O2)OC1=O (stereo not shown) [Compound D, (5,6-isopropylidene)ascorbyl 2-hexadecanoate]
polar ceramide content of reconstructed epidermes / effect on epidermal lipogenesis [1]: significantly increases the polar ceramide content

O=C1O[C@H]([C@@H](O)CO)C(O)=C1O [ascorbic acid]
percentage increase in Ceramides 4-7 relative to the untreated control [2, 3]: +7% | percentage increase in cer. 6-7 relative to the untreated control [2, 3]: +15% | percentage increase in Ceramides 4-7 relative to the untreated control [2, 4]: +21% | percentage increase in cer. 6-7 relative to the untreated control [2, 4]: −17%

CC1(C)OCC(C2OC(=O)C(O[C@H]3O[C@H](CO)[C@@H](O)[C@H](O)[C@H]3O)=C2O)O1 (stereo partly drawn) [Compound A, 2-O-α-D-glucopyranosyl of (5,6-isopropylidene)ascorbic acid]
polar ceramide content of reconstructed epidermes / effect on epidermal lipogenesis [1]: significantly increases the polar ceramide content

COc1cc(/C=C/C(=O)OC2=C(O)[C@@H]([C@@H](O)CO)OC2=O)ccc1O [Compound C, ascorbyl 2-ferulate]
polar ceramide content of reconstructed epidermes / effect on epidermal lipogenesis [1]: significantly increases the polar ceramide content

O=C1O[C@H]([C@@H](O)CO)C(O)=C1OS(=O)(=O)[O-].O=C1O[C@H]([C@@H](O)CO)C(O)=C1OS(=O)(=O)[O-].[Ba+2] [Compound F, barium 2-ascorbyl sulfate, reference compound]
polar ceramide content of reconstructed epidermes / effect on epidermal lipogenesis [1]: no significant effect on the epidermal lipogenesis

O=C1O[C@H]([C@@H](O)CO)C(O)=C1O[C@H]1O[C@H](CO)[C@@H](O)[C@H](O)[C@H]1O [ascorbyl glucoside, 2-O-α-D-glucopyranosyl of L-ascorbic acid]
percentage increase in Ceramides 4-7 relative to the untreated control [2, 3]: +11% | percentage increase in cer. 6-7 relative to the untreated control [2, 3]: +65% | percentage increase in Ceramides 4-7 relative to the untreated control [2, 4]: +40% | percentage increase in cer. 6-7 relative to the untreated control [2, 4]: +59% | increase in the synthesis of the epidermal lipids (in particular of the most polar ceramides) compared with ascorbic acid ([2]; tested at the same concentration as ascorbic acid): much higher for ascorbyl glucoside than for ascorbic acid

COC(=O)COC1=C(OCC(=O)OC)C(C(O)CO)OC1=O (stereo not shown) [Compound E, ascorbyl 2,3-bis(methoxycarbonyl-methoxy) ether, reference compound]
polar ceramide content of reconstructed epidermes / effect on epidermal lipogenesis [1]: no significant effect on the epidermal lipogenesis
